What was measured:
exon 45 = conditions: RMS cells, 24 hr incubation; for Exon Skipping Efficacy (%) with 5 μM AC: 5 μM AC with Endo-Porter; for Exon Skipping Efficacy (%) with 10 μM AC: 10 μM AC with Endo-Porter
Method: Cell Culture and Treatment: This study eruploys human rhabdomyosarcorna cells (RMS cells, ATCC CRL-2061. RMS cells were cultured in T75 flasks in RP 11640 (ATCC) medium with addition of 10% FBS (VWR) and Ix Penicillin-Streptormycin (VWR) under conditions of 37° C. and 5% CO2. 1×10^5 RMS cells were seeded per well in RPMII 640 full medium in 24-well plates for overnight. The next day the culture medium was replaced with 1 mL. fresh medium 5 μM or 10 μM of an AC from Table 8 was added to the cell culture and swirled to mix. Subsequently, 6 μL of Endo-Porter (Gene-tools) was added to the cell culture per well (1 mL of culture medium) and immediately swirled to mix. […] The cells were allowed to stand at room temperature for 5 minutes for cell lysis and pipetted a few times for a thorough mix. The lysates were collected in the Sample Tube RB (QIAGEN).
RNA Extraction: The RNA was extracted using QIAcube following the protocol from the manufacture. The concentration of the total RNA was determined using a NanoDrop 8000 (Thermo Fisher Scientific).
Nested PCR: Nested PCR was performed with 200 ng of the extracted total RNA and QIAGEN OneStep RT-PCR Kits for the primary amplification. A reaction solution of 50 μL was prepared following manufacture's protocol with DMD specific primers
The RT-PCR program used is as follows:
The secondary amplification PCR reaction was prepared using OneTaq® Hot Start 2X Master Mix following manufacture's protocol
Gel Electrophoresis Analysis for Exon Skipping Efficiency: 4 μL of the PCR product above was analyzed by 2% E-gel (Invitrogen′™) and imaged with E-Gel™ Power Snap Electrophoresis System (Thermo Fisher Scientific). The intensities of the skipped and full-length bands were analyzed. The polynucleotide level “A” of the band with exon 45 skipping and the polynucleotide level “B” of the band without exon 45 skipping were measured using ImageJ. 181 Based on these measurement values of “A” and “B”, the skipping efficiency was determined by the following equation: Skipping efficiency (%)=A/(A+B)'100.

D2/MDX mice [1] = conditions: Q2W IV; at 12 weeks vs pre-dose
Method: Grip strength was measured at pre-dose (FIG. 11A) and at 12 weeks (FIG. 11B).

D2/MDX mice [2] = conditions: Q2W IV; 4, 8 and 12 weeks post-treatment
Method: Serum CK was determined at 4 time points: pre-dose, and at 4, 8 and 12 weeks.

D2/MDX mice [3] = conditions: PMO only, Q2W IV; 2 to 12 weeks

Row | Substance | Exon Skipping Efficacy (%) with 5 μM AC (exon 45) | Exon Skipping Efficacy (%) with 10 μM AC (exon 45) | Grip strength (D2/MDX mice [1]) | Serum CK (D2/MDX mice [2]) | Wire hang time, PMO treatment alone (D2/MDX mice [3])
1 | 5′-CCGCTGCCCAATGCCATCCTG-3′ [D45-21mer-6] | 45.9% | 59.5% | – | – | –
2 | 5′-CCCAATGCCATCCTGGAGTTCC-3′ [D45-22mer-n1] | 45.1% | 62.3% | – | – | –
3 | 5′-CCCAATGCCATCCTGGAGTTCCTGT-3′ [D45-25mer-n4] | 37.6% | 42.6% | – | – | –
4 | 5′-ATGCCATCCTGGAGTTCCTGT-3′ [D45-21mer-n4] | 42.6% | 52.0% | – | – | –
5 | 5′-CAATGCCATCCTGGAGTTCCTGT-3′ [D45-23mer-n4] | 35.3% | 45.3% | – | – | –
6 | 5′-TGCCCAATGCCATCCTGGAGTTCCT-3′ [D45-25mer-n2] | 44.0% | 48.8% | – | – | –
7 | 5′-CCCAATGCCATCCTGGAGTTCCT-3′ [D45-23mer-n2] | 46.4% | 58.2% | – | – | –
8 | 5′-ATGCCATCCTGGAGTTCCTGTA-3′ [D45-22mer-n5] | 36.8% | 50.9% | – | – | –
9 | 5′-CCCAATGCCATCCTGGAGTTCCTG-3′ [D45-24mer-n3] | 44.2% | 52.3% | – | – | –
10 | 5′-GCCCAATGCCATCCTGGAGTTCC-3′ [D45-23mer-n1] | 39.6% | 54.4% | – | – | –
11 | 5′-GGCCAAACCTCGGCTTACCTGAAAT-3′ [PMO-MDX23] | – | – | no significant improvement | no significant decrease | following the same trends as the vehicle D2.mdx group
12 | 5′-CCGCTGCCCAATGCCATCCTGGAG-3′ [D45-24mer-3] | 37.2% | 40.8% | – | – | –
13 | 5′-AATGCCATCCTGGAGTTCCTG-3′ [D45-21mer-n3] | 41.8% | 52.7% | – | – | –

Reference: patent publication US20240417429A1, “COMPOSITIONS AND METHODS FOR SKIPPING EXON 45 IN DUCHENNE MUSCULAR DYSTROPHY” (Entrada Therapeutics, Inc., priority 2021, published 2024)
